# Literature values in patent US20210329915A1, “ABSORPTION PROMOTER, FLYING-INSECT PEST REPELLENT FRAGRANCE-CONTAINING COMPOSITION, AND FLYING-INSECT PEST REPELLENT PRODUCT” (DAINIHON JOCHUGIKU Co., Ltd., priority 2018, published 2021).
row,Structure (SMILES),Vapor pressure at 20° C. [Pa]
1,CC(O)CO (stereo not drawn) [propylene glycol],10.7
2,OCCOCCO [diethylene glycol],3
3,CC(O)COC(C)COC(C)CO (stereo not drawn) [tripropylene glycol],0.67

# The next lines start with the values.
row,Vapor pressure at 20° C. [Pa],Structure (SMILES)
1,3,CCCCOCCOCCO [diethylene glycol monobutyl ether]
2,1,OCCOCCOCCO [triethylene glycol]
3,2.7,OCCOCc1ccccc1 [benzyl glycol]
